Results on one compound are retold here after patent US20240408082A1, “METHODS FOR TREATING CANCERS AND TUMORS” (BEYONDSPRING PHARMACEUTICALS, INC., priority 2021, published 2024).

For experiment [1], the system named is small cell lung cancer model LXFS 2156. Kind of experiment: 3D clonogenic assay, Example 2, LXFS 2156. In kind it is cell-based. As to the method:
(§1) The present study investigated plinabulin for anticancer activity ex vivo in 68 out of 71 originally planned patient-derived xenograft (PDX) models representing major cancer types. Experiments were performed using a 3D clonogenic assay in a 96-well format with colony count based on image analysis as a read-out. By using this assay, the investigational compound was assessed for the ability to inhibit anchorage independent growth and ex vivo colony formation of tumor cells in semi-solid medium.
(§2) A master stock solution of plinabulin was prepared by dissolving the compound in DMSO at a concentration of 9.9 mM. Working stock solutions were prepared by diluting the master stock solution with DMSO to a concentration of 0.99 mM (330-fold the highest test concentration). Small aliquots of the master and working stock were stored at −20° C. […]
(§3) Plinabulin was investigated in 68 PDX models representing a number of cancer types. […] The percentage of viable cells was determined in a Neubauer-hemocytometer using trypan blue exclusion. […]
(§4) The clonogenic assay was carried out in a 96 well plate format using ultra low attachment plates. […] Cultures were incubated at 37° C. and 7.5% CO2 in a humidified atmosphere 13 days in total and monitored closely for colony growth using an inverted microscope. […]

For a further experiment, the system named is bladder cancer models. Kind of experiment: 3D clonogenic assay, Example 2, bladder cancer models. Particulars: n=6 models. In kind it is cell-based. As to the method:
as §1, §2, §3, §4

For `CC(C)(C)c1[nH]cnc1/C=c1\[nH]c(=O)/c(=C/c2ccccc2)[nH]c1=O` [plinabulin, (3Z,6Z)-3-Benzylidene-6-{[5-(2-methyl-2-propanyl)-1H-imidazol-4-yl]methylene}-2,5-piperazinedione], the “abs. IC70” value in experiment [1] stood at 15 nM. The 50% inhibitory concentration (IC50) (as a rule, the concentration at which inhibition is half-maximal) in experiment [1] (read-out: abs. IC50) came to 7 nM. Further, in the experiment with bladder cancer models, the “geometric mean absolute IC70” value is above 3000 nM.
